“Also recorded” adds a separate entry of the source. Counter-ions that a name gives are not always drawn.
What was measured:
SH-SY5Y cells = experiment: Neurite outgrowth (differentiation) in SH-SY5Y cells, Tubulin Tracker imaging; type: cell-based, human; conditions: for neurite outgrowth or differentiation: FIG. 5
Method: Transferrin is utilized in cell culture and in-vivo to deliver iron as a nutrient to cells. This is typically accomplished through the actions of holo-transferrin (HoloTf) binding to, and endocytosis by, its cognate receptor CD71, the transferrin receptor 1 (TfR1). Transferrin is typically believed to provide cells with iron as a means to promote and sustain metabolic activity. […] Induction of neuronal differentiation was assessed by morphological parameters of neurite formation (a key element typically used as a marker of neuronal differentiation, neuronal health, and function) according to the procedures of Agholme, 2010. J. of Alzheimer's Disease. Vol. 20:1p 069-108; and Dyberg et al., 2017. PNAS Vol 114 (32), E6603-E6612.
Undifferentiated SH-SY5Y cells were seeded into 96 well clear bottom plates in media containing 0.1% FBS. A serum-free base media was utilized as recommended by the supplier for SH-SY5Y cells (Sigma, Cat #94030304-1VL). Twenty-four hours after seeding cells, a 3× stock solution of ApoTf, final concentrations indicated on the x-axis, in serum free base media was added to the cells. ApoTf was obtained and purified from pooled human plasma and dosed at a final concentration of 0.2 mg/mL.
Cells were allowed to differentiate for 6 days. Neurite growth was assessed by imaging and image analysis. At the time of analysis, a 10× solution of Tubulin Tracker (Molecular Probes, T34075) and Hoechst 33342 (Molecular Probes #H3570) nuclear stain was prepared.
Briefly, Tubulin Tracker dissolved in DMSO was diluted 1:1 with Pluronic F-127 and further diluted into HBSS to generate a 10× solution. Hoechst 33342 was added to the HBSS-Tubulin Tracker solution at 10 μg/mL to generate a 10× nuclear stain. The 10× staining solution (10 μL) was added directly to treated assay wells and incubated at 37° C. for 30 minutes. Following incubation, 110 μL of 0.4% Trypan Blue was added directly to assay wells and imaged on a Molecular Devices Nano imaging instrument. Nine images/well were acquired in the blue (Nuclei) and green (Tubulin) fluorescent channels for each image.
After obtaining images, the MetaExpress Neurite Outgrowth analysis module (Molecular Devices) was used to identify cells, cell bodies, and quantify neurites. The total number of neurite branches were divided by the total number of cells imaged to account for different numbers of cells in each test well. The Outgrowth Fold Change was determined by setting the untreated control cells to a value of 1 with all other treatments shown relative to untreated control.
Undifferentiated SH-SY5Y cells were seeded and treated as described in Example 1. Neurite growth was assessed by imaging and image analysis. At the time of analysis, a 10× solution of Tubulin Tracker (Molecular Probes, T34075) and Hoechst 33342 (Molecular Probes #H3570) nuclear stain was prepared. Briefly, Tubulin Tracker dissolved in DMSO was diluted 1:1 with Pluronic F-127 and further diluted into HBSS to generate a 10× solution. Hoechst 33342 was added to the HBSS-Tubulin Tracker solution at 10 μg/mL to generate at 10× nuclear stain. The 10× staining solution (10 μL) was added directly to treated assay wells and incubated at 37° C. for 30 minutes. Following incubation, 110 μL of 0.4% Trypan Blue was added directly to assay wells and imaged on a Molecular Devices Nano imaging instrument. Nine images/well were acquired in the blue (Nuclei) and green (Tubulin) fluorescent channels for each image. After obtaining images, the MetaExpress Neurite Outgrowth analysis module (Molecular Devices) was used to identify cell bodies and quantify neurites. The total number of neurite branches were divided by the total number of cells imaged to account for different numbers of cells. The Outgrowth Fold Change was determined by setting the untreated control to a value of 1 with all other treatments shown relative to untreated control. ApoTf was obtained and purified from pooled human plasma and dosed at a final concentration of 0.2 mg/mL. […]

HIF-1α = conditions: cited from earlier work
[1] = Iron saturation by ICP-AES; type: physicochemical
Excerpt: The skilled person will appreciate that transferrin iron saturation levels can be readily determined without undue burden by quantifying the total iron levels in a sample having a known transferrin concentration. The total iron levels in sample can be measured by any one of a number of methods know by those of skill in the art. Suitable examples include: • Colorimetric assays—Iron is quantitated by measuring the intensity of the violet complex formed in the reaction between ferrozine and Fe^2+ in acetate buffer at 562 nm. Thiourea or other chemicals can be added to complex contaminant metals such Cu^2+, which can also bind with ferrozine and yield falsely elevated iron values. See Ceriotti et al., Improved direct specific determination of serum iron and total iron-binding capacity Clin Chem. 1980, 26(2), 327-31, the contents of which are incorporated herein by reference. • Inductively Coupled Plasma Atomic Emission Spectroscopy (ICP-AES)—is an emission spectroscopy technique that quantifies the mass percentage of metals in a sample. ICP-AES is based on the excitation of metal atoms/ions in the sample using a plasma (an ionized gas consisting of positive ions and free electrons) and analyzing the emission wavelength of the electromagnetic radiation, which is typical of that particular metal. Even though the technique is a standard analytical technique within common general knowledge of the skilled person, further information on ICP-AES can be found in Manley et al., Simultaneous Cu-, Fe-, and Zn-specific detection of metalloproteins contained in rabbit plasma by size-exclusion chromatography-inductively coupled plasma atomic emission spectroscopy. J Biol Inorg Chem. 2009, 14, 61-74, the contents of which are incorporated herein by reference.
The preferred method of determining the iron content of a sample for the purposes of the therapeutic method of the present invention is ICP-AES. The iron saturation of transferrin is then calculated based on the transferrin protein concentration, total iron content of the sample, and the fact that wild type transferrin has two iron-binding sites. Wild type human transferrin (molecular weight 79,750) can bind two iron atoms such that a sample containing 1 g of transferrin would be 100% saturated by 1.4 mg of iron.
Protein purity was determined by SDS-PAGE. Iron saturation levels were determined using ICP-AES in accordance with the procedures outlined in Manley et al., J Biol Inorg Chem (2009) 14:61-74, the contents of which are incorporated herein by reference.

CC(=O)N(O)CCCCCNC(=O)CCC(=O)N(O)CCCCCNC(=O)CCC(=O)N(O)CCCCCN [DFO, Deferoxamine mesylate, reference compound]
neurite outgrowth / differentiation versus concentration (SH-SY5Y cells; FIG. 3A, DFO versus ApoTf): little neurite formation beyond that concentration

O=C(O)CNC(=O)c1c(O)c2ccccc2n(Cc2ccccc2)c1=O [IOX2, N-[[1,2-Dihydro-4-hydroxy-2-oxo-1-(phenylmethyl)-3-quinolinyl]carbonyl]glycine, reference compound]
concentration inducing up-regulation of HIF-1α (HIF-1α; undifferentiated SH-SY5Y): 1 µM
neurite outgrowth or differentiation (SH-SY5Y cells): no neurite outgrowth or differentiation was observed
neurite outgrowth or differentiation (SH-SY5Y cells; 4 μM): no effect was observable

C[C@@H](N)[C@H]1CC[C@H](C(=O)Nc2ccncc2)CC1.Cl.Cl [Y-27632, trans-4-[(1R)-1-Aminoethyl]-N-4-pyridinylcyclohexanecarboxamide dihydrochloride, reference compound]
neurogenic effect, alone (SH-SY5Y cells; FIG. 8, 50 μM): strongly neurogenic

ApoTransferrin A: ApoTf preparation, Grifols - prepared in house
Iron Saturation (%) [1]: 0.27%

ApoTransferrin B: ApoTf preparation, Grifols - prepared in house
Iron Saturation (%) [1]: 0.59%

ApoTransferrin C: ApoTf preparation, Grifols - prepared in house
Iron Saturation (%) [1]: 0.24%

HoloTransferrin: the iron-saturated form of transferrin, purified from pooled human plasma
Iron Saturation (%) [1]: 100%
HIF-1α production (HIF-1α; reported in US2016008437): can induce HIF-1α production
neurogenesis / differentiation of SH-SY5Y (SH-SY5Y cells; FIG. 4, proteins at 0.2 mg/mL, listed as HoloTf): unable to induce differentiation; also recorded: lack of neurogenesis

recombinant ApoTf: recombinant wild-type human transferrin, SEQ ID NO: 1, expressed in 293-6E cells
neurogenesis (neurite outgrowth) of SH-SY5Y (SH-SY5Y cells; FIG. 3B, proteins at 0.2 mg/mL): did induce neurogenesis

— patent US20230265167A1, “COMPOSITIONS HAVING NEUROREGENERATIVE APPLICATIONS” (GRIFOLS WORLDWIDE OPERATIONS LIMITED, priority 2020, published 2023)
